Like-named read-outs stand apart in the source and are kept apart here.
How the values were obtained:
Homo sapiens TRAAK = biological target: T1, Homo sapiens TRAAK (Homo sapiens, UniProt Q9NYG8); assay: Excised inside-out patch recording of TRAAK from Xenopus oocytes; format: biochemical
T1 construct: The transcribed messages encode H. sapiens TRAAK amino acids 1–393; expressed in transfected cells; host or cells: Xenopus laevis oocytes, cRNA injection
T1 sequence (Q9NYG8 1-393): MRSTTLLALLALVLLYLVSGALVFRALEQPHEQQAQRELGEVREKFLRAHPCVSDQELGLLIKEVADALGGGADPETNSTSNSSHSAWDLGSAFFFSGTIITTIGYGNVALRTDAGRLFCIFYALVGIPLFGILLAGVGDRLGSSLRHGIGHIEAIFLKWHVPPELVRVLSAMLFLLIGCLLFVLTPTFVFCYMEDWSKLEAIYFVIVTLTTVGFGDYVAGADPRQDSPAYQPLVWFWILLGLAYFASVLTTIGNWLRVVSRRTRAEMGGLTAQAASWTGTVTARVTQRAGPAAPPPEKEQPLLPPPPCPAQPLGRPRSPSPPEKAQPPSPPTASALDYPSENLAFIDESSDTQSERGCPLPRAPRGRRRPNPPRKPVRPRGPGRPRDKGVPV
Excerpt: For patch clamp recording from Xenopus oocytes, genes encoding full-length Homo sapiens TRAAK (UniProt Q9NYG8–2), TREK-1 (UniProt O95069), and TREK-2 (UniProt P57789) were codon optimized for eukaryotic expression, synthesized (Genewiz), and cloned into a modified pGEMHE vector using Xho1 and EcoR1 restriction sites. The transcribed messages encode H. sapiens TRAAK amino acids 1–393, TREK-1 amino acids 1–426, or TREK-2 amino acids 1–538 with an additional three amino acids (SNS) at the C terminus. TRAAK mutants were introduced by polymerase chain reaction (PCR). Linearized DNA was transcribed in vitro using T7 polymerase. Complementary RNA (0.1 to 10 ng for TRAAK, TREK-1, TREK-2, and mutants) in 50 nL H2O was injected into Xenopus laevis oocytes extracted from anesthetized frogs. Currents were recorded at 25 °C from inside-out patches excised from oocytes 1 to 5 d after RNA injection. The pipette solution contained 15 mM KCl, 135 mM NaCl, 2 mM MgCl2, and 10 mM HEPES (pH = 7.4 with KOH) and the bath solution contained 150 mM KCl and 10 mM HEPES (pH = 7.1 with KOH). Borosilicate glass pipettes were pulled to 2–5 MΩ resistance.
Patches were evaluated with voltage-step protocols to confirm TRAAK expression and minimal non-specific leak based on reversal potential. Currents were recorded using an Axopatch 200B amplifier (Molecular Devices) at a bandwidth of 1 kHz and digitized with an Digidata 1550B (Molecular Devices) at 100–500 kHz using pClamp10.7 software. Pressure was applied with a second-generation high-speed pressure clamp device (HSPC-2-SB, ALA Scientific Instruments). Aggregated data were from patches from n ≥ 2 different cells on different days. No relevant differences were observed between patches from different cells. In an effort to minimize variability associated with differences in resting membrane tension, we targeted patches with low basal curvature and low resting channel activity and ensured measured pressure difference across the patch was as close to zero as possible at rest to prevent mechanical activation of channels. Data were analyzed using Clampfit 10.7, Excel, and Graphpad Prism software. For voltage families, the data were decimated 100x and plotted in Prism. Statistical analysis was conducted with Dunnett’s multiple comparisons test after an ordinary one-way ANOVA using Prism software.
To avoid cannabinoid absorption to plastic, cannabinoid solutions were made in glass vials and diluted by weight, perfusion was performed using glass tubing pulled from borosilicate glass Pasteur pipettes (Fisherbrand, Cat# 13–678-20C), and recordings were performed in glass chambers. Channel activity was continuously recorded during perfusion steps. Patches were exposed to each cannabinoid concentration until a stable current level was reached (0.5–2 minutes). CBD (Cayman Chemical cat#90080) was prepared as a 10mM stock solution in DMSO, CBN (Cayman Chemical cat#25495) was prepared as a 80mM stock solution in DMSO, CBDV (Phytolab Cat#85955) was prepared as a 10mM stock solution in DMSO, and CBDP (Cayman Chemical cat#33611) was purchased as a 2.9 mM stock solution in methanol. Cannabinoids were serially diluted in bath solution to achieve working concentrations of 50 μM to 10 nM. Bath volume in the recording chamber was minimized by suction and drug-containing solutions were delivered three times to ensure establishment of desired concentration in the recording chamber. Cannabinoids were applied from low to high concentration. The recording chamber and perfusion system were washed extensively with methanol after every trial.
The effects of cannabinoids on channel activity were quantified by the reduction in channel current evoked at 0 mV during a gap-free recording or during 200 ms long voltage families with steps ranging from −100 to +100 mV. Currents were normalized to those prior to cannabinoid application to facilitate comparisons across different patches and cells. […]

CB2 = system: CB2; design: method as in PMID 27398024; conditions: partial agonism of CB2; cited from earlier work
CB1 = system: CB1; design: method as in PMID 27398024; conditions: partial agonism of CB1; cited from earlier work
[1] = TRAAK inhibition, relative to CBD

C=C(C)[C@@H]1CCC(C)=CC1c1c(O)cc(CCCCCCC)cc1O (stereo partly drawn) [CBDP, Cannabidiphorol]
fold more potent than CBD (Homo sapiens TRAAK; [1]): ~ 10 fold | IC50 (Homo sapiens TRAAK; wild-type TRAAK, excised patch, current at 0 mV, all glass components, read-out: IC50): 17 ± 3 nM

C=C(C)[C@@H]1CCC(C)=C[C@H]1c1c(O)cc(CCC)cc1O [CBDV, cannabidivarin]
inhibition of TRAAK channels at high concentration (Homo sapiens TRAAK; 20 μM): fully inhibits | fold less potent than CBD (Homo sapiens TRAAK; [1]): ~ 40 fold | IC50 (Homo sapiens TRAAK; wild-type TRAAK, excised patch, current at 0 mV, read-out: IC50): 5580 ± 340 nM

CCCCCc1cc(O)c2c(c1)OC(C)(C)c1ccc(C)cc1-2 [CBN, Cannabinol]
IC50 (Homo sapiens TRAAK): 107 nM | more potent than CBD (Homo sapiens TRAAK; [1]): ~ 33%

Source: publication doi:10.1101/2024.12.09.627564, “Cannabinoid inhibition of mechanosensitive K^+ channels” (bioRxiv, 2024)
